The supplement of paper PMC10307832

Compound: O=C(Nc1cccc(C(F)(F)F)c1)Nc1cc(S(=O)(=O)NC2CC2)ccc1-c1ccsc1 [AGI-6780]
Test: relative viability (nuclei count vs DMSO), 5 days (fraction); higher = more cells survive
Procedure, shortened: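 Viability is treated-well nuclei as a fraction of vehicle-well nuclei, reported as the median across plates. Before counting, lung cancer cell lines were kept overnight at 37 °C in 1536-well plates, pinned with five √10-spaced library-drug doses on vehicle-anchored plates, and left 5 days without medium change, then fixed, permeabilised and Hoechst-stained in one step, imaged at 4× and counted by MetaXpress. A plate passed only if control CV was below 25% and at least one doubling occurred.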

| Cell Line | relative viability (0.08 µM) | relative viability (0.253 µM) | relative viability (0.8 µM) | relative viability (2.53 µM) | relative viability (8 µM) |
| --- | --- | --- | --- | --- | --- |
| NCI-H460 | 0.987 | 0.99 | 0.998 | 0.977 | 0.992 |
| NCI-H1793 | 1.19 | 1.08 | 1.03 | 0.768 | 0.897 |
| NCI-H2347 | 1.07 | 1.02 | 0.743 | 1.06 | 1.07 |
| HCC-15 | 1.09 | 1.06 | 1.1 | 0.808 | 1.05 |
| NCI-H1915 | 1.02 | 0.995 | 1.01 | 0.994 | 1.05 |
| NCI-H1734 | 0.945 | 1.07 | 1 | 0.692 | 1.06 |
| NCI-H2342 | 0.984 | 1.01 | 1.15 | 0.848 | 1.2 |
| COR-L 105 | 0.985 | 0.943 | 1 | 0.881 | 1.02 |
| PC-14 | 1.02 | 1.01 | 1.05 | 1.02 | 1.04 |
| NCI-H2087 | 1.03 | 1.18 | 1.12 | 1.01 | 1.12 |
| NCI-H1395 | 0.928 | 1 | 1.09 | 0.768 | 0.97 |
| NCI-H1648 | 0.735 | 0.999 | 0.983 | 0.942 | 1.08 |
| NCI-H520 | 1.11 | 1.04 | 1.09 | 0.819 | 1.04 |
| A549 | 0.992 | 0.992 | 1.08 | 0.745 | 0.992 |
| LC-2-ad | 1.02 | 1.05 | 1.1 | 0.96 | 0.996 |
| EMC-BAC-2 | – | 1.01 | 1.01 | 0.775 | 1.05 |
| EBC-1 | 1.07 | 1.04 | 0.985 | 1 | 1 |
| NCI-H1792 | 0.856 | 1.22 | 0.946 | 0.727 | 0.986 |
| NCI-H23 | 0.927 | 1.11 | 0.9 | 0.796 | 1.16 |
| NCI-H2126 | 1.06 | 1.07 | 0.981 | 0.796 | 1.08 |
| LXF-289 | 0.994 | 1.01 | 1.02 | 1.13 | 0.984 |
| NCI-H1437 | 0.943 | 1 | 1.04 | 1 | 0.997 |
| NCI-H647 | 0.873 | 0.979 | 1.01 | 0.909 | 1.07 |
| NCI-H838 | 0.984 | 0.996 | 0.995 | 0.83 | 0.957 |
| NCI-H727 | 0.988 | 0.902 | 1.26 | 0.885 | 0.987 |
| NCI-H661 | 1 | 1 | 1.08 | 0.876 | 0.947 |

| Cell Line | relative viability (0.08 µM) | relative viability (0.253 µM) | relative viability (0.8 µM) | relative viability (2.53 µM) | relative viability (8 µM) |
| --- | --- | --- | --- | --- | --- |
| 201T | 0.996 | 1 | 0.997 | 0.989 | 0.995 |
| PC-3 [JPC-3] | 0.982 | 1.04 | 1.08 | 1.08 | 0.962 |
| CAL-12T | 0.962 | 1.02 | 1.18 | 1.03 | 1.07 |
| NCI-H1355 | 1.02 | 1.07 | 1.03 | 0.823 | 1 |
| RERF-LC-KJ | 1.05 | 1.06 | 0.977 | 0.798 | 0.951 |
| LK-2 | 0.945 | 1.02 | 1.08 | – | 1.16 |
| Calu-6 | 1.03 | 1.01 | 1.07 | 0.993 | 1.03 |
| NCI-H1944 | 1.02 | 0.975 | 1.02 | – | 1.06 |
| HCC-827 | 1.06 | 1.06 | 1.01 | 1.07 | 1.02 |
| NCI-H3122 | 1 | 1.03 | 1.04 | 1.02 | 1.07 |
| UMC-11 | 0.95 | 0.955 | 1.2 | – | 1.13 |
| EPLC-272H | 0.774 | 1.15 | 1.12 | 0.807 | 0.927 |
| NCI-H1651 | 1.03 | 1.04 | 0.957 | 0.921 | 1.02 |
| NCI-H650 | 0.873 | 1.04 | 0.937 | 0.843 | 1.06 |
| LOU-NH91 | 0.953 | 0.992 | 1.04 | 0.923 | 0.961 |
| HARA | 1.04 | 1.15 | 1.02 | 0.942 | 1.17 |
| NCI-H1299 | 1 | 0.98 | 0.955 | 1.04 | 1.01 |
| NCI-H596 | 0.96 | 0.954 | 0.87 | 0.724 | 1.12 |
| LCLC-103H | 1.05 | 1.08 | 0.963 | 0.861 | 0.941 |
| SK-MES-1 | 1.04 | 1.03 | 0.99 | 0.958 | 0.99 |
| A-427 | 0.994 | 0.919 | 1.1 | 0.815 | 1.04 |
| NCI-H441 | 1.08 | 1.03 | 1.04 | 0.786 | 1.16 |
| HCC-44 | 0.955 | 1.01 | 0.995 | 1.04 | 0.959 |
| NCI-H1993 | 1.01 | 1.07 | 1.19 | 0.677 | 0.971 |
| NCI-H2023 | 0.969 | 0.978 | 1.03 | 0.882 | 1.03 |
| NCI-H1666 | 1 | 0.974 | 0.981 | 0.843 | 1.06 |

| Cell Line | relative viability (0.08 µM) | relative viability (0.253 µM) | relative viability (0.8 µM) | relative viability (2.53 µM) | relative viability (8 µM) |
| --- | --- | --- | --- | --- | --- |
| LCLC-97TM1 | 0.959 | 0.983 | 1.03 | 0.758 | 0.966 |
| NCI-H1703 | 0.949 | 0.84 | 1.02 | 0.823 | 0.807 |
| NCI-H1755 | 1.02 | 0.983 | 0.964 | 0.915 | 1 |
| H3255 | 0.956 | 1.03 | 1.04 | 0.826 | 0.97 |
| NCI-H2085 | 1.02 | 1 | 1.05 | 1.07 | 0.993 |
| BEN | 0.834 | 0.959 | 1.04 | – | 0.957 |
| COR-L23 | 1.05 | 1.12 | 0.949 | 1.06 | 1.01 |
| ABC-1 | 0.799 | 1.06 | 1.08 | 0.851 | 0.901 |
| HCC-366 | 1.01 | 1.08 | 1.01 | 0.96 | 1.02 |
| NCI-H2170 | 0.988 | 1 | 0.909 | – | 0.975 |
| SK-LU-1 | 1.05 | 1.04 | 0.777 | 0.945 | 1.19 |
| NCI-H2009 | 0.968 | 1.03 | 0.94 | 1.1 | 1.05 |
| NCI-H358 | 1.1 | 0.911 | 0.95 | 0.794 | 0.916 |
| NCI-H1650 | 0.942 | 0.915 | 1.2 | 0.995 | 0.976 |
| EKVX | 0.986 | 1.03 | 0.938 | 0.799 | 0.969 |
| NCI-H1975 | 0.94 | 1.08 | 0.918 | 0.873 | 0.921 |
| SW 1573 | 1.03 | 1.02 | 1.04 | 0.739 | 0.957 |
| LU99A | 0.975 | 0.928 | 0.987 | 0.839 | 0.931 |
| NCI-H2405 | 0.995 | 1 | 0.842 | 0.923 | 1.01 |
| NCI-H2228 | 0.972 | 1.08 | 0.913 | 0.846 | 1.15 |
| HOP-62 | 1.03 | 1.01 | 0.994 | 0.984 | 1.03 |
| ChaGo-K-1 | 1.01 | 1.02 | 1.06 | 0.921 | 1 |
| NCI-H322M | 0.896 | 0.927 | 1.07 | 0.922 | 0.965 |
| IA-LM | 0.921 | 0.954 | 1.15 | 1.02 | 1.04 |
| HCC-78 | 0.876 | 1.04 | 1.05 | 0.982 | 1.02 |
